# Laboratory results from BindingDB's records for doi:10.3109/14756369809035823 (Orstom, 1998).
# pIC50: −log10 of the molar value. Where “and” joins values, the source holds several entries; their conditions need not be identical. Equal values may be shown once.
# Target: Trypanothione reductase (Crithidia fasciculata, UniProt P39040)
# Assay: Inhibition Assay
# Conditions: pH 7.8; 25 °C
# From the text: Crithidia fasciculata trypanothione reductase (cfTR) was purifed from E.coli using the expression system. The activity of the cfTR was observed from the rate of oxidation of the co-substrate NADPH to NADP+ as measured by a decrease in absorbance at 340nm.
# Chain of Trypanothione reductase (P39040 whole entry): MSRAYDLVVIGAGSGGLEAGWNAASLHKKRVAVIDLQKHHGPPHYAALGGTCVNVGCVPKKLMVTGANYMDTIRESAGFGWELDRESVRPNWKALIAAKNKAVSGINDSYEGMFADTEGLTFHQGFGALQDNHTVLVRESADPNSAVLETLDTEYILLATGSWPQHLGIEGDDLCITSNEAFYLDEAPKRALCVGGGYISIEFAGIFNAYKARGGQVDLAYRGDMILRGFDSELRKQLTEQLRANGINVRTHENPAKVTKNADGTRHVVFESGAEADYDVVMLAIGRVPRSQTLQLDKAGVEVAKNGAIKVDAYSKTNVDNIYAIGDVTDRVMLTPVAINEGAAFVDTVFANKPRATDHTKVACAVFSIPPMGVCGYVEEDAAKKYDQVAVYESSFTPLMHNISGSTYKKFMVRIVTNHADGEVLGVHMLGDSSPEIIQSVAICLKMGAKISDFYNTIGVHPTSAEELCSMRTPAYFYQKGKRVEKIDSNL
row,SMILES,pIC50
1,COc1ccc2cc1Oc1ccc(cc1)C[C@H]1c3cc(c(OC)cc3CCN1C)Oc1c(OC)c(OC)cc3c1[C@@H](C2)N(C)CC3,3.91 and 3.63
2,"COc1cc2c3c(c1OC)Oc1ccc(cc1)C[C@@H]1c4c(cc(OC)c(OC)c4Oc4ccc(cc4)C[C@H]3N(C)CC2)CCN1C [Cycleanine (R,R)]",3.52
3,COc1ccc2cc1Oc1ccc(cc1)C[C@H]1c3c(cc4c(c3Oc3cc5c(cc3OC)CCN(C)[C@H]5C2)OCO4)CCN1C [Cepharanthine],4.82
4,COc1cc2c3cc1Oc1c(O)c(OC)cc4c1[C@H](Cc1ccc(OC)c(c1)-c1cc(ccc1O)C[C@H]3N(C)CC2)N(C)CC4,4.22
5,"COc1cc2c3cc1Oc1c(O)c(OC)cc4c1[C@H](Cc1ccc(cc1)Oc1cc(ccc1O)C[C@H]3NCC2)N(C)CC4 (racemic) [Daphnoline (R,S)]",4.30
6,"COc1ccc2cc1Oc1ccc(cc1)C[C@H]1c3c(cc(O)c(OC)c3Oc3cc4c(cc3OC)CCN(C)[C@@H]4C2)CCN1C [Gyrocarpine (S,R)]",4.24
7,"COc1ccc2cc1Oc1ccc(cc1)C[C@H]1c3cc(c(OC)cc3CCN1C)Oc1c(O)c(OC)cc3c1[C@@H](C2)N(C)CC3 [Limacine (R,R)]",4.05
8,COc1ccc2cc1Oc1ccc(cc1)C[C@H]1c3c(cc(OC)c(O)c3Oc3cc4c(cc3OC)CCN(C)[C@@H]4C2)CCN1C,4.26
9,"COc1cc2c(cc1O)[C@@H](Cc1ccc(Oc3cc(C[C@H]4NCCc5cc(OC)c(O)cc54)ccc3O)cc1)NCC2 [Lindoldhamine (R,R)]",4.57
10,COc1cc2c3cc1Oc1cc(ccc1O)C[C@@H]1c4c(cc(OC)c(O)c4Oc4ccc(cc4)C[C@H]3N(C)CC2)CCN1C [(-)-BEBEERINE],4.22
